Measured values published in patent publication US20210236523A1, “P[…] FOR HEADACHE DISORDERS” (priority 2020, published 2021).

Key:
[1] = tested on: patients with migraine headache; experiment: Migraine study: acute physiologic and psychotropic effects and adverse events of drug administration; format: in vivo, human
Experimental: Blood pressure, heart rate, and peripheral oxygenation were measured at baseline and throughout experimental sessions. Acute headache pain and associated symptoms (if present) and drug effects (overall, anxiety/fear, sleepiness/sedation, nausea, joy/intense happiness, peace/harmony) were self-reported on a 0-3 scale (0=none, 1=minimal, 2=moderate, 3=definite) at baseline and throughout experimental sessions. Psychedelic effects were self-reported at the end of experimental sessions using the validated 5-Dimensional Altered States of Consciousness (5D-ASC) scale. Subjects were discharged from the NSU at 6 hours after capsule ingestion or once physiological and psychological drug effects had resolved. Only one subject remained in the NSU for an additional 60 minutes until drug effects resolved. Subjects were not allowed to drive themselves after experimental sessions. Emergency contacts, including 24-hour/7-day psychiatry services, were provided to all subjects.
Telephone follow-up was performed the day after and weekly for two weeks after each experimental session, and at 2 and 3 months after the second experimental session.
Statistical analyses were performed using SAS, version 9.4 (SAS Institute Inc., Cary, N.C.) and figures were produced with GraphPad Prism (GraphPad Software Inc., La Jolla, Calif.). All statistical tests were two-sided with an overall pre-hypothesis alpha threshold of 0.05. Measures of error are shown as standard error about the mean (SEM). The primary clinical outcome measure was change in weekly migraine days (WMD) from baseline. This and the secondary measures of migraine burden—changes from baseline in weekly migraine attacks (WMA), pain severity, light sensitivity severity, sound sensitivity severity, nausea/vomiting severity, attack-related functional impairment, and weekly migraine abortive use—were calculated and compared via paired t-test. The time to the next two migraine attacks were also compared between placebo and psilocybin via paired t test. Acute effects of drug administration on mean arterial pressure (MAP), heart rate, peripheral oxygenation, and general drug effects were analyzed via 2-way repeated measures ANOVA with post-hoc Fisher least significant difference (LSD) test (when the interaction existed). Psychotropic effects as measured by the 5D-ASC scale were calculated as a percent of the total possible score 21, 22, as well as the percent possible score of each of the scale's five dimensions—oceanic boundlessness (OBN), dread of ego dissolution (DED), visionary restructuralization (VRS), acoustic alterations (AUA), and vigilance reduction (VIR). Percent possible scores were then compared between placebo and psilocybin via paired t-test. In order to test the assumption that psychotropic effects are unrelated to effects on migraine activity, the maximum rating of general drug effects and the percent total possible 5D-ASC scale score were correlated to the percent change in WMD after psilocybin administration. The number of adverse events (AEs) were compared between placebo and psilocybin using inference on proportions.

[2] = tested on: patients with migraine headache; experiment: Placebo-controlled cross-over study of a single low oral dose of psilocybin in migraine headache: headache diary burden; format: in vivo, human
Description: The purpose of this exploratory study was to investigate the effects of a single low dose of psilocybin in patients with migraine headache in a controlled experiment. Basic information was gathered to assist in the development of future studies considering the effects and mechanism of action of 5-HT2A receptor compounds in migraine and other headache disorders.
This study was registered on clinicaltrials.gov (NCT03341689) with approvals from the Human Studies Subcommittee of Veterans Affairs Connecticut Healthcare System (VACHS) and the Human Investigations Committee of Yale University School of Medicine. The study was conducted under an approved Investigational New Drug application (#124,874) with the US Food & Drug Administration, under a Schedule 1 license (author DCD). Psilocybin was provided by author NC from the University of Wisconsin. Weight-based capsules of psilocybin 0.143 mg/kg and matching placebo [microcrystalline cellulose; obtained from Fagron (St. Paul, Minn.)] were compounded into identical blue gel capsules by the VACHS Investigational Research Pharmacy for each subject.
Adults (age 21 to 65 years, inclusive) free from serious medical or psychiatric disease with migraine headache as defined by the International Classification of Headache Disorders III-beta and with a frequency of migraine attacks of 2 per week or more were eligible to participate in this study. Among the excluded medical conditions were uncontrolled hypertension, coronary artery disease, cardiac arrhythmia, cerebrovascular disease, and serious central or peripheral nervous system or spinal disease (e.g., multiple sclerosis, amyotrophic lateral sclerosis). Psychotic or manic disorders in the subject or a first degree relative was also excluded, as were substance abuse within the past 3 months and any prior serious adverse event with psilocybin, LSD, or related compounds (i.e., mescaline). Prior exposure to psilocybin or related compounds through recreational or medicinal use or through participation in other research studies was not excluded, although any use in the past 3 months was prohibited. Alcohol use within one week of the first experimental test day was prohibited. Caffeine and nicotine were not restricted. Subjects were required to be free from serotonergic antidepressants (selective serotonin reuptake inhibitors, serotonin and norepinephrine reuptake inhibitors, monoamine oxidase inhibitors, tricyclics) for at least 6 weeks, serotonergic antiemetics (i.e., ondansetron) for at least 2 weeks, and vasoconstrictive medications (i.e., pseudoephedrine) for at least 5 half-lives of said medication. Triptans were permitted, but no more than twice weekly and not within 5 half-lives of said triptan before each test day and not within 5 half-lives of psilocybin (15 hours) after each test day.
Subjects were instructed to maintain a headache diary starting two weeks before the first experimental session until two weeks after the second experimental session. Subjects documented every headache attack, migraine (with associated migrainous symptoms) or otherwise (without associated migrainous symptoms; not counted as a migraine attack). Associated symptoms—photophobia (light sensitivity), phonophobia (sound sensitivity), nausea/vomiting—as well as attack-related functional impairment were documented using a 0-3 visual analog scale (VAS): 0=none, 1=mild, 2-moderate, 3=severe. The abortive medications taken and their effects were also recorded in the diary. Only the 14 days prior to the first experimental session (baseline) and the 14 days after each experimental session (inclusive) were counted in the final analysis.
Subjects completed two experimental sessions, separated by at least 14 days, which were conducted in the Neurobiological Studies Unit (NSU) at VACHS. Subjects reported to the NSU at 08:00; urine drug, urine pregnancy (when applicable), and alcohol breathalyzer tests were required to be negative in order to proceed. […]

[3] = of 10 subjects, 14 days after single oral dose 0.143 mg/kg
[4] = single oral dose 0.143 mg/kg, two weeks after dosing

For `CN(C)CCc1c[nH]c2cccc(OP(=O)(O)O)c12` [psilocybin, 3-(2-dimethylaminoethyl)-1H-indol-4-yl] dihydrogen phosphate], the “maximum increase in mean arterial pressure (MAP) over placebo” value ([1]; at 1.5 hours after capsule ingestion, 0.143 mg/kg oral, mean (SEM)) was 12.2 (4.7) mmHg, the “tingling/paresthesia, cold/shivering, dry mouth, and acute migraine reported” value ([1]; during experimental session, 0.143 mg/kg oral) was “one subject each” and the “lightheadedness and generalized tension/sore muscles, numbers vs placebo” value ([1]; during experimental sessions) was “not significant”. For the same compound, the “drug x time interaction on heart rate or peripheral oxygenation” value ([1]; during experimental sessions, 0.143 mg/kg oral) was “no significant interactions”, the “5D-ASC scale, percent possible score for the total scale score” value ([1]; end of experimental test day, 0.143 mg/kg oral, mean (SEM), P=0.0263 vs placebo) was 19.35% and the “tension/sore muscles, general headache attack, and migraine attack vs placebo” value ([1]; in the 24 hours following the start of experimental sessions) was “no significant differences”. The “serious or unexpected adverse events” value ([1]; migraine study, single oral dose 0.143 mg/kg) was “no serious or unexpected AEs”, the “MAP vs placebo (post-hoc Fisher LSD)” value ([1]; starting at 45 minutes until 4 hours after capsule ingestion, 0.143 mg/kg oral) was “significant increase” and the “change from baseline in attack-related functional impairment” value ([2]; 0-3 VAS, single oral dose 0.143 mg/kg, mean (SEM), P=0.0235 vs placebo) was −0.96 (0.26). The “subjects with no migraine attacks after administration” value [2, 3] was 2 subjects, the “subjects with only one migraine attack after administration” value [2, 3] was 2 subjects and the “change in weekly migraine days (WMD) from baseline” value ([2]; single oral dose 0.143 mg/kg, 14 days after dosing, mean (SEM), 10 subjects, P=0.0027 vs placebo) was −1.65 (0.39) days/week. The “time to the second migraine attack after drug administration” value ([2]; single oral dose 0.143 mg/kg, mean (SEM), 15 days used when no attack, P=0.0119 vs placebo) was 10.30 (1.61) days, the “time to the first migraine attack after drug administration” value ([2]; single oral dose 0.143 mg/kg, mean (SEM), 15 days used when no attack, P=0.0554 vs placebo) was 6.30 (1.88) days and the “change from baseline in weekly migraine attacks (WMA)” value ([2]; single oral dose 0.143 mg/kg, mean (SEM), P=0.0039 vs placebo) was −1.40 (0.36) attacks/week. For the same compound, the “change from baseline in pain severity” value ([2]; single oral dose 0.143 mg/kg, mean (SEM), P=0.0109 vs placebo) was −0.70 (0.16), the “change from baseline in weekly migraine abortive use” value ([2]; single oral dose 0.143 mg/kg, mean (SEM), P=0.0140 vs placebo) was −0.65 (0.21) abortives/week and the “percentage of subjects who had 25% reduction in WMD” value [2, 4] was 80%. For the same compound, the “percentage of subjects who had 50% reduction in WMD” value [2, 4] was 50% and the “percentage of subjects who had 75% reduction in WMD” value [2, 4] was 30%.
